{
  "source": "patent US7196110B2",
  "about": "“N-substituted tricyclic 3-aminopyrazoles as inhibitors for the treatment of cell proliferative disorders” (Janssen Phamaceutica N.V., priority 2002, dated 2007)",
  "key": {"[1]": {"test_system": "MDAH2774 (ovarian cancer)", "assay": "Clonogenicity assay, compound in combination with irradiation, MDAH2774", "format": "cell-based, human", "description": "Radiotherapy is a major therapeutic modality in treating many types of cancers including human prostate and ovarian cancers. The anti-proliferative activity of compounds within the scope of the invention was tested in combination with irradiation treatment.\nCells DU145 (prostate cancer) and MDAH2774 (ovarian cancer) were obtained from ATCC; growth media MEM medium (Mediatech, Herndon, Va.) was supplemented with 8% FBS, 5 U/ml penicillin and 50 μg/ml Streptomycin (Hyclone, Logan, Utah), 2 mM L-glutamine (Hyclone, Logan, Utah), 25 mM HEPES (Hyclone, Logan, Utah); McCoy's 5A medium (Mediatech, Herndon, Va.) was supplemented with 8% FBS, 50 U/ml penicillin and 50 μg/ml-Strep (Hyclone, Logan, Utah) and Glutamine 2 mM L-glutamine (Hyclone, Logan, Utah), ^137CS γ-source was a Gammacell 1000 Elite irradiator (MDS Nordion, Kanata, Ontario, Canada); DMSO; 1× PBS; Methanol; 0.25% Crystal Violet, and 60 mm tissue culture dishes.\nDU145 or MDAH2774 cells at desired cell number were plated in early log phase on 60 mm dishes in MEM medium supplemented with 8% FBS, Penicillin, Streptomycin, L-glutamine, or McCoys medium supplemented with 8% FBS, Penicillin, Streptomycin and Glutamine, respectively. Cells were plated in triplicate. […] The final concentrations of the compound in the cell media ranged from 1 to 100 nM. After 24 h incubation with the test compound plates were split in two groups of equal size. The plates in the first group were irradiated with 7.3 Gy (plates containing DU145 cells) or 5.4 Gy (plates containing MDAH2774 cells) using a ^137Cs γ-source (dose rate 3.32 Gy/min). The second group of plates were treated identically but not irradiated. Cells were incubated for an additional 24 hours in medium containing test compound. Then, the cells were replenished with fresh compound-free identical medium and allowed to grow for an additional 11 days. Cells were then fixed with methanol, stained with 0.25% crystal violet, and the clones containing more than 50 cells were counted.\nThe activity appeared to be concentration-dependent with more dramatic effects achieved at 100 nM compound with radiation in either cell line."}, "[2]": {"test_system": "human chronic myelogenous leukemia (CML) K562 cell line", "assay": "Trypan blue exclusion cell counting assay in leukemia cells", "format": "cell-based", "description": "(§1) The effect of compounds of the invention on cell proliferation in leukemia cells, in particular, the human chronic myelogenous leukemia (CML) K562 cell line, was tested using flow cytometry and trypan blue exclusion cell counting assays.\n(§2) The human chronic myelogenous leukemia (CML) K562 cell line was obtained from American Type Culture Collection (ATCC) and cultured under specified conditions, as provided by ATCC. A Becton Dickinson FACSCalibur instrument was used for flow cytometry analyses. A CycleTEST PLUS DNA Reagent Kit (Cat. No. 340242, Becton Dickinson) was used in the study for cell staining. The standard operating procedure and a protocol for CycleTEST PLUS DNA Reagent Kit from Becton Dickinson have been followed to carry out the study. Briefly, flow cytometric analysis of the differentially stained CML K562 cell line was used to estimate the DNA content and cell cycle phase distribution of cells treated with various concentrations of the compound for 24 hours. […] Data analysis was carried out using the ModFit LT cell cycle data analysis program (Verity Software House, Topsham, Me. 04086, www.vsh.com). Cell viability test was performed using a Trypan Blue exclusion assay (Trypan Blue from Sigma, Cat No. T 0776) following procedures known to those skilled in the art."}, "[3]": {"test_system": "human chronic myelogenous leukemia (CML) K562 cell line", "assay": "Flow cytometry cell cycle phase distribution in leukemia cells", "format": "cell-based", "conditions": "K562, 24 hours", "description": "as §1, §2"}, "[4]": {"test_system": "Human tumor cell lines (LoVo, MDA-MB-231, H460 etc.)", "assay": "Anti-tumor assay, human tumor nude mouse xenograft model", "format": "in vivo, athymic nude mice", "conditions": "50 mg/kg", "description": "The anti-tumor activity of experimental compounds was evaluated in vivo using the human tumor nude mouse xenograft model. All procedures involving animals were conducted in an animal facility fully accredited by the American Association for Assessment and Accreditation of Laboratory Animal Care (AAALAC) and in accordance with The Guide for the Care and Use of Laboratory Animals (NIH). Protocols were approved by the RWJ-PRI Internal Animal Care and Use Committee (IACUC).\nHuman tumor cell lines (LoVo, MDA-MB-231, H460 etc.) were obtained from American Type Culture Collection and cultured under specified conditions required for each cell type. Female athymic nude mice (Charles River nu/nu) were injected subcutaneously in the inguinal region of the thigh with 1–2×10^6 tumor cells in 0.1 mL volume on day zero. For growth delay studies, mice were dosed orally with vehicle (control group) or experimental drugs beginning three days after tumor cell inoculation. Compounds were prepared in 0.5% methylcellulose and treatments were administered bid for 30–35 consecutive days. Tumor growth was measured twice a week using calipers for the duration of the treatment. Tumor areas (mm^2) were calculated as a product of length×width. […] Differences between treated and control mice were analyzed statistically by ANOVA and Dunnett's t-test. […]"}},
  "data": [
    {"smiles": "COc1cc2c(cc1OC)-c1n[nH]c(Nc3cccc(F)c3)c1C2", "note": "[Compound 14, (3-Fluoro-phenyl)-(6,7-dimethoxy-2,4-dihydro-indeno[1,2-c]pyrazol-3-yl)-amine]", "values": [
      {"measurement": "colony formation inhibition with versus without radiation, MDAH2774", "setting": "[1]; 5.4 Gy, compound 1 to 100 nM", "value": "the inhibitory effect was greater with radiation"},
      {"measurement": "concentration from which marked inhibitory activity against colony formation was shown, MDAH2774", "setting": "[1]; in the presence or absence of radiation (5.4 Gy)", "value": "≥ 30", "unit": "nM"},
      {"measurement": "No. of MDAH2774 Clones (average of three plates)", "setting": "[1]; w/Radiation (5.4 Gy), 1000 cells initially plated, compound 1 nM", "value": 121},
      {"measurement": "No. of MDAH2774 Clones (average of three plates)", "setting": "[1]; w/Radiation (5.4 Gy), 1000 cells initially plated, compound 3 nM", "value": 125},
      {"measurement": "No. of MDAH2774 Clones (average of three plates)", "setting": "[1]; w/Radiation (5.4 Gy), 1000 cells initially plated, compound 10 nM", "value": 121},
      {"measurement": "No. of MDAH2774 Clones (average of three plates)", "setting": "[1]; w/Radiation (5.4 Gy), 1000 cells initially plated, compound 30 nM", "value": 8},
      {"measurement": "No. of MDAH2774 Clones (average of three plates)", "setting": "[1]; w/Radiation (5.4 Gy), 1000 cells initially plated, compound 100 nM", "value": 3},
      {"measurement": "No. of MDAH2774 Clones (average of three plates)", "setting": "[1]; w/o Radiation, 200 cells initially plated, compound 1 nM", "value": 98},
      {"measurement": "No. of MDAH2774 Clones (average of three plates)", "setting": "[1]; w/o Radiation, 200 cells initially plated, compound 3 nM", "value": 96},
      {"measurement": "No. of MDAH2774 Clones (average of three plates)", "setting": "[1]; w/o Radiation, 200 cells initially plated, compound 10 nM", "value": 110},
      {"measurement": "No. of MDAH2774 Clones (average of three plates)", "setting": "[1]; w/o Radiation, 200 cells initially plated, compound 30 nM", "value": 35},
      {"measurement": "No. of MDAH2774 Clones (average of three plates)", "setting": "[1]; w/o Radiation, 200 cells initially plated, compound 100 nM", "value": 8},
      {"measurement": "effect on cell proliferation in K562 cells", "setting": "[2]; 24 hours treatment", "value": "concentration-dependent decrease of cell proliferation"},
      {"measurement": "IC50", "setting": "[2]; Homo sapiens, K562, 24 hours treatment, read-out: IC50 on K562 cell proliferation", "value": "~10", "unit": "nM"},
      {"measurement": "Percent of cells at G0–G1", "setting": "[3]; compound conc. 1 nM", "value": 35, "unit": "%"},
      {"measurement": "Percent of cells at G2/M", "setting": "[3]; compound conc. 1 nM", "value": 11, "unit": "%"},
      {"measurement": "Percent of cells at S phase", "setting": "[3]; compound conc. 1 nM", "value": 53, "unit": "%"},
      {"measurement": "Percent of cells at G0–G1", "setting": "[3]; compound conc. 10 nM", "value": 31, "unit": "%"},
      {"measurement": "Percent of cells at G2/M", "setting": "[3]; compound conc. 10 nM", "value": 28, "unit": "%"},
      {"measurement": "Percent of cells at S phase", "setting": "[3]; compound conc. 10 nM", "value": 41, "unit": "%"},
      {"measurement": "Percent of cells at G0–G1", "setting": "[3]; compound conc. 100 nM", "value": 2, "unit": "%"},
      {"measurement": "Percent of cells at G2/M", "setting": "[3]; compound conc. 100 nM", "value": 98, "unit": "%"},
      {"measurement": "Percent of cells at S phase", "setting": "[3]; compound conc. 100 nM", "value": 0, "unit": "%"},
      {"measurement": "Percent of cells at G0–G1", "setting": "[3]; compound conc. 1000 nM", "value": 3, "unit": "%"},
      {"measurement": "Percent of cells at G2/M", "setting": "[3]; compound conc. 1000 nM", "value": 93, "unit": "%"},
      {"measurement": "Percent of cells at S phase", "setting": "[3]; compound conc. 1000 nM", "value": 4, "unit": "%"},
      {"measurement": "Percent of cells at G0–G1", "setting": "[3]; compound conc. 10000 nM", "value": 5, "unit": "%"},
      {"measurement": "Percent of cells at G2/M", "setting": "[3]; compound conc. 10000 nM", "value": 90, "unit": "%"},
      {"measurement": "Percent of cells at S phase", "setting": "[3]; compound conc. 10000 nM", "value": 5, "unit": "%"},
      {"measurement": "tumor growth inhibition", "setting": "[4]", "value": 72, "unit": "%"}
    ]}
  ]
}
